We go through one molecule from patent US12269826B1, “7H-pyrido[4′,3′:4,5]pyrrolo[2,3-c][1,7]naphthyridine compounds as CK2 inhibitors” (KING FAISAL UNIVERSITY, priority 2023, dated 2025).

For experiment [1], the system named is PC3 (prostate). As to the kind of experiment: In vitro cytotoxic activity (MTT) assay, PC3. In kind it is cell-based. To be noted: Homo sapiens; cells exposed for 96 hours; 50% inhibition of cell proliferation; read-out: Cytotoxicity activity IC50, PC3 (prostate). Here is the method: (§1) Compounds 1-16 were screened for their in vitro cytotoxic activity utilizing a 3-(4,5-dimethyl-thiazol-2-yl)-2,5-diphenyltetrazolium bromide (MTT) assay against selected cancer human cell lines consisting of PC3 (prostate), HCT116 (colon), A375 (melanoma), H1299 (lung), MIAPaCa-2 (pancreas), HL60 (leukemia), MCF7 (breast), MDA-MB-231 (breast) (T. Mosmann, J. Immunol. Meth., 1983, 65, 55-63). The cells were cultured at 37° C. in RMPI1640 medium supplemented with 10% fetal bovine serum, 50 IU/mL penicillin, and 50 μg/mL streptomycin in a 5% CO2 incubator. All cells were sub-cultured 3 times/week by trypsinisation. Viable cells were seeded and allowed to adhere for 12 h before a test drug was added in 96-well plates at an initial density of 1.0×10^5 cells/mL. Tumor cell lines were separately exposed to various concentrations of the tested compounds followed by incubation at a temperature of 37° C. during 96 hours inside a medium of fresh RMPI 1640. Cells were subsequently incubated at 37° C. using MTT at 0.5 mg/mL during 4 hours. After removal of supernatant, formazan crystals were dissolved in isopropanol and the optical density was measured at 570 nm. CX-4945 was used as a positive control.

The test system of experiment [2] is HCT116 (colon). The experiment can be described thus: In vitro cytotoxic activity (MTT) assay, HCT116. In kind it is cell-based. To be noted: Homo sapiens, HCT-116; cells exposed for 96 hours; 50% inhibition of cell proliferation; read-out: Cytotoxicity activity IC50, HCT116 (colon). As for the experimental part: as §1
The subject of experiment [3] is A375 (melanoma). As to the kind of experiment: In vitro cytotoxic activity (MTT) assay, A375. In kind it is cell-based. The conditions noted are these: Homo sapiens, A-375; cells exposed for 96 hours; 50% inhibition of cell proliferation; read-out: Cytotoxicity activity IC50, A375 (melanoma). Here is the method:
as §1

Experiment [4] deals with H1299 (lung). The experiment can be described thus: In vitro cytotoxic activity (MTT) assay, H1299. In kind it is cell-based. The conditions noted are these: Homo sapiens, NCI-H1299; cells exposed for 96 hours; 50% inhibition of cell proliferation; read-out: Cytotoxicity activity IC50, H1299 (lung). Here is the method:
as §1

Experiment [5] relates to MIAPaCa-2 (pancreas). As to the kind of experiment: In vitro cytotoxic activity (MTT) assay, MIAPaCa-2. In kind it is cell-based. To be noted: Homo sapiens, MIA PaCa-2; cells exposed for 96 hours; 50% inhibition of cell proliferation; read-out: Cytotoxicity activity IC50, MIAPaCa-2 (pancreas). As for the experimental part:
as §1

The subject of experiment [6] is HL60 (leukemia). The experiment can be described thus: In vitro cytotoxic activity (MTT) assay, HL60. In kind it is cell-based. The conditions noted are these: Homo sapiens, HL-60; cells exposed for 96 hours; 50% inhibition of cell proliferation; read-out: Cytotoxicity activity IC50, HL60 (leukemia). Here is the method: as §1
Experiment [7] has as its system MCF7 (breast). As to the kind of experiment: In vitro cytotoxic activity (MTT) assay, MCF7. In kind it is cell-based. To be noted: Homo sapiens, cells exposed for 96 hours, 50% inhibition of cell proliferation, read-out: Cytotoxicity activity IC50, MCF7 (breast). Here is the method:
as §1

Experiment [8] concerns MDA-MB-231 (breast). As to the kind of experiment: In vitro cytotoxic activity (MTT) assay, MDA-MB-231. In kind it is cell-based. The conditions noted are these: Homo sapiens, cells exposed for 96 hours, 50% inhibition of cell proliferation, read-out: Cytotoxicity activity IC50, MDA-MB-231 (breast). As for the experimental part:
as §1

For experiment [9], the target named is T1, recombinant human CK2 (RRββ-holoenzyme) (Homo sapiens, UniProt P68400).
T1 construct: purchased Millipore
As to the kind of experiment: CK2 Kinase Assay (33P-ATP, filter plate). In kind it is biochemical. To be noted: final ATP concentration 15 μM; 10 min at 30° C.; read-out: protein kinase CK2 IC50. As for the experimental part:
CK2 Kinase Assay was conducted using the protocol as described in Pierre F. et al; J. Med. Chem. 2011, 54, 635-654. The tested compounds in aqueous solution were added at a volume of 10 μL to a reaction mixture comprising 10 μL of assay dilution buffer (ADB; 20 mM MOPS, pH 7.2, 25 mM β-glycerol phosphate, 5 mM EGTA, 1 mM sodium orthovanadate, and 1 mM dithiothreitol), 10 μL of substrate peptide (RRRDDDSDDD, dissolved in ADB at a concentration of 1 mM), 10 μL of recombinant human CK2 (RRββ-holoenzyme, 25 ng dissolved in ADB; Millipore). Reactions were initiated by the addition of 10 μL of ATP solution (90% 75 mMMgCl2, 75 µM ATP (final ATP concentration: 15 μM) dissolved in ADB; 10% [γ-33P] ATP (stock 1 mCi/100 μL; 3000 Ci/mmol (Perkin-Elmer) and maintained for 10 min at 30° C. The reactions were quenched with 100 μL of 0.75% phosphoric acid and then transferred to and filtered through a phosphor cellulose filter plate (Millipore). After washing each well five times with 0.75% phosphoric acid, the plate was dried under vacuum for 5 min and, following the addition of 15 μL of scintillation fluid to each well, the residual radioactivity was measured using a Wallac luminescence counter. The IC50 values were derived from eight concentrations of test inhibitors.

T1 sequence (P68400 whole entry): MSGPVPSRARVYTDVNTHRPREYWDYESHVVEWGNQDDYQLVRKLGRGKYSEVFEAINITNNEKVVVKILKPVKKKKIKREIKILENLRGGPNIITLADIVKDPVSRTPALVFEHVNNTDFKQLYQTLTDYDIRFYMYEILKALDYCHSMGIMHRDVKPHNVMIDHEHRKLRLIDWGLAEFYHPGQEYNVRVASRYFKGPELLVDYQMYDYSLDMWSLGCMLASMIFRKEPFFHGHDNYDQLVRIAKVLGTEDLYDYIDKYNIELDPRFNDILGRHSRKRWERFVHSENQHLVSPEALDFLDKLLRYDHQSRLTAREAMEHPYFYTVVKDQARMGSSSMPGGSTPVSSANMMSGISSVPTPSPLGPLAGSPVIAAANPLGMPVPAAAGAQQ
T1 sequence (P67870 whole entry partner): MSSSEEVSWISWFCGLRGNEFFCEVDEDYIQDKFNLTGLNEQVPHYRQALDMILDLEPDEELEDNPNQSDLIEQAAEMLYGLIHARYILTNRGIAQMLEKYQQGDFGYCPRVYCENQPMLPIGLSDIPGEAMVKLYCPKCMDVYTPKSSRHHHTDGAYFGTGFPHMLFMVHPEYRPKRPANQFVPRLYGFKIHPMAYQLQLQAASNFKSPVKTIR

In general, IC50 refers to the concentration needed to halve the response being measured. Consider `Clc1cccc(Nc2nc3cnccc3c3c2[nH]c2cnccc23)c1` [Compound 1, N-(3-chlorophenyl)-7H-pyrido[4′,3′:4,5]pyrrolo[2,3-c][1,7]naphthyridin-6-amine], for which the IC50 in [1] was 900 nM; in [2], 1100 nM; in experiment [3], 4200 nM; in [4], 1600 nM; in experiment [5], 2800 nM; in experiment [6], 3600 nM. Besides, the IC50 in [7] amounted to 4900 nM; in experiment [8], 4100 nM; in [9], 295 nM.
